{
  "source": "patent US20250136578A1",
  "about": "(Kolm Therapeutics Inc., priority 2023, published 2025)",
  "key": {"AR / CBP ternary complex": {"target": "AR / CBP ternary complex (Homo sapiens, UniProt P10275+Q92793)", "sequence (P10275 whole entry)": "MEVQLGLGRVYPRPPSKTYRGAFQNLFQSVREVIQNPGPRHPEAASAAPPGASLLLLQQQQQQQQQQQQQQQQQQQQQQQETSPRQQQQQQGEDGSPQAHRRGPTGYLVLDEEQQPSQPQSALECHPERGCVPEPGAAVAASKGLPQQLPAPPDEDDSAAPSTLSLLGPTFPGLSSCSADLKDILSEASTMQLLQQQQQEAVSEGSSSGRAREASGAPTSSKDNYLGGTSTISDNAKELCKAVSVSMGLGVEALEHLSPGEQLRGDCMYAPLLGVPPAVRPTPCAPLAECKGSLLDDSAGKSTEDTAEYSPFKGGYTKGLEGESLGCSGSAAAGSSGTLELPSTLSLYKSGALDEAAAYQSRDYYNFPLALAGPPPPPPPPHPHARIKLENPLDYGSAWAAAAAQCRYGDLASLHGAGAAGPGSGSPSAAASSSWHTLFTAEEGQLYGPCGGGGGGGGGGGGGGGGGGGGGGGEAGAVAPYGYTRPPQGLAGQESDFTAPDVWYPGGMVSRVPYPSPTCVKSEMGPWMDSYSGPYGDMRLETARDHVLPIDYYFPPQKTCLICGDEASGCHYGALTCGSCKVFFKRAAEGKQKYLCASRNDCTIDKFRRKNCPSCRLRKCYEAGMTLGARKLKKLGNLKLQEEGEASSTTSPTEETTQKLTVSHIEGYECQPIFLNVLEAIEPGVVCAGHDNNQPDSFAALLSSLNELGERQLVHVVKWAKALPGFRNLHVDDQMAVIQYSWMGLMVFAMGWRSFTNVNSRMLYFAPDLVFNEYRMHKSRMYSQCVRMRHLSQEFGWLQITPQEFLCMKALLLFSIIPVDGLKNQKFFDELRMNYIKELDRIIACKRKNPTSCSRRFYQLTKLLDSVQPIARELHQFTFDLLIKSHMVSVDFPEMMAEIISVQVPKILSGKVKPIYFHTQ", "sequence (Q92793 2-2442)": "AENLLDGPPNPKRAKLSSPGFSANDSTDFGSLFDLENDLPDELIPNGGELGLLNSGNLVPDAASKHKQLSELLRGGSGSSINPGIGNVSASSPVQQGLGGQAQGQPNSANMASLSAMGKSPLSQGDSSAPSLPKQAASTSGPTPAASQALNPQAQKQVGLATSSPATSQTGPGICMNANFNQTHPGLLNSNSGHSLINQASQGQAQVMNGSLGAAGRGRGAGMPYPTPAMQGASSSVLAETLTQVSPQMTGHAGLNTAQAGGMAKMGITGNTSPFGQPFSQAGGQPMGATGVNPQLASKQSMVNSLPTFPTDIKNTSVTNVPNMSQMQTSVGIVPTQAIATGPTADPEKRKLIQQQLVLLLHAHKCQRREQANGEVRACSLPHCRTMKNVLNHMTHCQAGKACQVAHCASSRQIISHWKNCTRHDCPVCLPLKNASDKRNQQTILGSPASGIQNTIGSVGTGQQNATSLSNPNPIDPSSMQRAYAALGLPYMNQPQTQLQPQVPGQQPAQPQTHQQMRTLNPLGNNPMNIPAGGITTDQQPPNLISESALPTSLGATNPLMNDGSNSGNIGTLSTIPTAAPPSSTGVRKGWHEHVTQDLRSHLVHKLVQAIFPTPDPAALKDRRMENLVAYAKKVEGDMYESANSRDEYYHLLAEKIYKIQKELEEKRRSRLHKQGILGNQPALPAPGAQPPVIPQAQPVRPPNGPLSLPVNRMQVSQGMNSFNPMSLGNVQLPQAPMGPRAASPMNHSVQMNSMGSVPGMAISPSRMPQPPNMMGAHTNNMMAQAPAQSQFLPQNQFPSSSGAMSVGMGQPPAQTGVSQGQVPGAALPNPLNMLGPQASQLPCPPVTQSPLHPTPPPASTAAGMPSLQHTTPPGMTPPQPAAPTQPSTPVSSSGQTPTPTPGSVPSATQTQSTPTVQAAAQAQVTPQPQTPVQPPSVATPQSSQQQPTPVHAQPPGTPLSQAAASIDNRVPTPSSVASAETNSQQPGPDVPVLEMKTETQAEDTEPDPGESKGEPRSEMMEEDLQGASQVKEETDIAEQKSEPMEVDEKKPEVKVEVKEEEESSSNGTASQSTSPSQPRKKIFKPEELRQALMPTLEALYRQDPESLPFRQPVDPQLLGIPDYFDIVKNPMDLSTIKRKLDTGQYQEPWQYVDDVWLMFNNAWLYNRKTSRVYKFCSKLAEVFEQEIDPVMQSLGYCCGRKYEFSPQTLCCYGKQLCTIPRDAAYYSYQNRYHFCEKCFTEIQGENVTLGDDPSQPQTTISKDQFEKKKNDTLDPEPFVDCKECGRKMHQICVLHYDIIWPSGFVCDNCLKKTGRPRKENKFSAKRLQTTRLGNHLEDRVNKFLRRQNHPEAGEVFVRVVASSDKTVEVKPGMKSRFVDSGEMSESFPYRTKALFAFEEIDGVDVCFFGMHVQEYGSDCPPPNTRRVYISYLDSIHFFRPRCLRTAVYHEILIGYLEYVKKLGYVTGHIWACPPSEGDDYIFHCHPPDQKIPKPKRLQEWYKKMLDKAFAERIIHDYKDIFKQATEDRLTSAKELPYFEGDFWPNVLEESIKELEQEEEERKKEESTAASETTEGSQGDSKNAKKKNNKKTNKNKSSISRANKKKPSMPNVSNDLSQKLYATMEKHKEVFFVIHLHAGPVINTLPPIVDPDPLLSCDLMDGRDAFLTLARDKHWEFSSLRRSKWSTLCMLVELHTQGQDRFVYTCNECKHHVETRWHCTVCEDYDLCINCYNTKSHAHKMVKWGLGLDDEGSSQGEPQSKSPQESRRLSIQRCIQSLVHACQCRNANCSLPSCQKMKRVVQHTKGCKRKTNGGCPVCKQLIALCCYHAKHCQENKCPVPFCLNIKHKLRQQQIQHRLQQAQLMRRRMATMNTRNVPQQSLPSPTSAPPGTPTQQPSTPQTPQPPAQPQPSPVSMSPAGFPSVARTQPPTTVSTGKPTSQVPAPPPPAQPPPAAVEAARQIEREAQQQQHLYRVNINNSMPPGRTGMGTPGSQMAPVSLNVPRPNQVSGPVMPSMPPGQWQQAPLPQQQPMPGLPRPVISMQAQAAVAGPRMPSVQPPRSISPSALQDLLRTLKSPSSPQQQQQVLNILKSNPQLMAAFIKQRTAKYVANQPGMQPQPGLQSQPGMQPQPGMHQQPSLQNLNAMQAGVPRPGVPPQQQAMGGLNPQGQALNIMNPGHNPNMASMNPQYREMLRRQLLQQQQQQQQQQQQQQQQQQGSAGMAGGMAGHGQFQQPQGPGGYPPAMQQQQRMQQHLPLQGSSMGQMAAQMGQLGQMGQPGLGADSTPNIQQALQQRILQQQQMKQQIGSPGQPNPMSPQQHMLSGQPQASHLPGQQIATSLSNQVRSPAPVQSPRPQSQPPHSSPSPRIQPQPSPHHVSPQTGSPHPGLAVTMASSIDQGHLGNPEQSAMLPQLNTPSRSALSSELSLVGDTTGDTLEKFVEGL", "assay": "Ternary complex formation assay (sandwich ELISA, AR capture, CBP antibody detection) in VCaP cell lysates", "type": "cell-based", "conditions": "treated 1.5 hours, rabbit CBP or p300 antibody detection, average, read-out: Average Ternary Complex", "description": "Black MaxiSorp plates: coat with 50 μL of mouse 1/50 diluted AR antibody (Monoclonal Antibody (AR 441 from Thermo Fisher); diluted in phosphate buffered saline (PBS). Spin the liquid to the bottom of the wells, if necessary. Incubate overnight at 4° C. Next day, wash 3 times with 200 μL of TBST. Block with 200 μL of blocking buffer (5% BSA in TBST) at room temperature for 2 hours (BSA: A4503 or A2153 from Sigma). Wash plates 3 times with TBST. Plates are ready for lysates Preparation of dimerizer treated lysates\nCulture cells in 96 wells at 50K VCaP cells/well for at least 3 days. Plate in 5% Omega charcoal stripped FBS in total volume of 200 uL. Treat with bifunctional for 1.5 hours by adding 1 μL of 200× stock in DMSO. Aspirate media/compound. Add and pipet-to-mix 70 μL of 1× AlphaLisa Lysis Buffer to each well (Perkin Elmer, AlphaLISA SureFire Ultra, diluted in water). Pipet up and down when adding lysis buffer to disrupt cells. Let lysis proceed for 30 min at 4° C.\nIncubate for 1 hour at room temperature. Flick out the lysates. Wash 3 times with TBST. Add 75 μL of rabbit CBP or p300 antibody to each well (diluted 1:5000 in blocking buffer (5% BSA in TBST). CBP antibody: (D6C5) Rabbit mAb #7389; p300 antibody: (D8Z4E) Rabbit mAb #86377. Incubate overnight at 4° C. Wash 3 times with 300 uL TBST, each time on shaker for 5-10 min. Prepare goat anti-rabbit antibody conjugated to HRP (1/100K dilution in blocking buffer) Invitrogen Catalog number: 32260. Add 75 μL of HRP-conjugated goat anti-rabbit antibody. Incubate at room temperature for 1 hour. Flick out the HRP-antibody mixture. Wash 7-8 times with TBST, each time on shaker for 10 min. Later washes try to overflow the wells so that no residual HRP remains bound to the sides of the well. Prepare and add 75 uL/well of QuantaRed Enhance Chemifluorescent HRP Substrate solution. Immediately read fluorescence on BMG ClarioStar (ex: 570/em 585), and repeat the read in 5 minutes and 15 minutes."}, "VCaP cells": {"tested_on": "VCaP cells", "assay": "VCaP growth inhibition assay (CTG)", "type": "cell-based", "conditions": "30 pM R1881, 9 days", "description": "VCaP cells (ATCC Cat #CRL-2876) are plated at 1×10^4 cells per well of a white plastic 96-well cluster plate (Thermo Scientific Nunc Cat #165306) in 100 uL phenol red-free DMEM (Gibco Cat #21063-029) media with 5% CSS (Omega Scientific Cat #FB-04). Cluster plates are returned to the incubator (37*C/5% CO2) for 72 hours prior to treatment. Just prior to treatment, 100 uL of phenol red-free DMEM/5% CSS and 60 pM R1881 (Sigma Cat #R0908-10 mg) was added to each well of the cluster plates (Final R1881 concentration=30 pM). Compounds (200X) were added to each well in a volume of 1 uL, with serial dilutions (1:5) from 20 uM to 2 pM (final concentrations in well are 100 nM to 10 fM). Cluster plates are returned to the incubator for 9 days.\nAfter the 9-day treatment period, media was removed from the cluster plates by inversion and 100 uL room temperature CTG reagent (Promega Cat #G7573) is added to each well. The cluster plates are placed on a shaker and incubated at room temperature for 20 minutes. Following this shaking/incubation, cluster plates are read on a luminometer (BMG ClarioStar). IC50 values are obtained by graphing the RLU data vs. compound concentration with nonlinear regression 4-parameter logistic curves (GraphPad Prism)."}},
  "data": [
    {"smiles": "CC(=O)N1CCc2c(c(N3CCCc4cc(-c5cnn(C)c5)c(C(F)F)cc43)nn2C2CCN(C[C@H]3CCN(c4ccc(C(=O)N[C@H]5CC[C@H](Oc6ccc(C#N)c(Cl)c6)CC5)nn4)C[C@H]3C)CC2)C1", "note": "(stereo in doubt) [Compound 101, 6-[4-[[4-[5-acetyl-3-[7-(difluoromethyl)-6-(1-methylpyrazol-4-yl)-3,4-dihydro-2H-quinolin-1-yl]-6,7-dihydro-4H-pyrazolo[4,3-c]pyridin-1-yl]-1-piperidyl]methyl]-3-methyl-1-piperidyl]-N-[4-(3-chloro-4-cyano-phenoxy)cyclohexyl]pyridazine-3-carboxamide]", "values": [
      {"measurement": "EC50", "setting": "AR / CBP ternary complex", "result": "< 1", "unit": "nM"},
      {"measurement": "IC50", "setting": "VCaP cells", "result": "≤ 0.1", "unit": "nM"}
    ]},
    {"smiles": "CC(=O)N1CCc2c(c(N3CCCc4cc(C#N)ccc43)nn2C2CCN(C[C@H]3CCN(c4ccc(C(=O)N[C@H]5CC[C@H](Oc6ccc(C#N)c(Cl)c6)CC5)nn4)C[C@@H]3C)CC2)C1", "note": "(stereo in doubt) [Compound 105, 6-[4-[[4-[5-acetyl-3-(6-cyano-3,4-dihydro-2H-quinolin-1-yl)-6,7-dihydro-4H-pyrazolo[4,3-c]pyridin-1-yl]-1-piperidyl]methyl]-3-methyl-1-piperidyl]-N-[4-(3-chloro-4-cyano-phenoxy)cyclohexyl]pyridazine-3-carboxamide]", "values": [
      {"measurement": "EC50", "setting": "AR / CBP ternary complex", "result": "< 1", "unit": "nM"},
      {"measurement": "IC50", "setting": "VCaP cells; Homo sapiens, 216 h", "result": "0.1 to 1", "unit": "nM"}
    ]},
    {"smiles": "CO[C@H]1CN(c2ccc(C(=O)N[C@H]3CC[C@H](Oc4ccc(C#N)c(Cl)c4)CC3)nn2)CC[C@@H]1CN1CCC(n2nc(N3CCCc4cc(-c5cnn(C)c5)c(C(F)F)cc43)c3c2CCN(C(C)=O)C3)CC1", "note": "(stereo in doubt) [Compound 220, 6-[4-[[4-[5-acetyl-3-[7-(difluoromethyl)-6-(1-methylpyrazol-4-yl)-3,4-dihydro-2H-quinolin-1-yl]-6,7-dihydro-4H-pyrazolo[4,3-c]pyridin-1-yl]-1-piperidyl]methyl]-3-methoxy-1-piperidyl]-N-[4-(3-chloro-4-cyano-phenoxy)cyclohexyl]pyridazine-3-carboxamide]", "values": [
      {"measurement": "EC50", "setting": "AR / CBP ternary complex", "result": "< 1", "unit": "nM"},
      {"measurement": "IC50", "setting": "VCaP cells; Homo sapiens, 216 h", "result": "≤ 0.1", "unit": "nM"}
    ]},
    {"smiles": "CC(=O)N1CCc2c(c(N3CCCc4cc(-c5cnn(C)c5)c(C(F)F)cc43)nn2C2CCN(C(=O)C3CCN(c4ccc(C(=O)N[C@H]5CC[C@H](Oc6ccc(C#N)c(Cl)c6)CC5)nn4)CC3)CC2)C1", "note": "[Compound 2]", "values": [
      {"measurement": "EC50", "setting": "AR / CBP ternary complex", "result": "< 1", "unit": "nM"},
      {"measurement": "IC50", "setting": "VCaP cells; Homo sapiens, 216 h", "result": "≤ 0.1", "unit": "nM"}
    ]},
    {"smiles": "CC(=O)N1CCc2c(c(N3CCCc4cc(-c5cnn(C)c5)c(C)cc43)nn2C2CCN(C(=O)C3CCN(c4ccc(C(=O)N[C@H]5CC[C@H](Oc6ccc(C#N)c(Cl)c6)CC5)nn4)CC3)CC2)C1", "note": "[Compound 3, 6-[4-[4-[5-acetyl-3-[7-methyl-6-(1-methylpyrazol-4-yl)-3,4-dihydro-2H-quinolin-1-yl]-6,7-dihydro-4H-pyrazolo[4,3-c]pyridin-1-yl]piperidine-1-carbonyl]-1-piperidyl]-N-[4-(3-chloro-4-cyano-phenoxy)cyclohexyl]pyridazine-3-carboxamide]", "values": [
      {"measurement": "EC50", "setting": "AR / CBP ternary complex", "result": "< 1", "unit": "nM"},
      {"measurement": "IC50", "setting": "VCaP cells; Homo sapiens, 216 h", "result": "≤ 0.1", "unit": "nM"}
    ]},
    {"smiles": "CC(=O)N1CCc2c(c(-c3cccc4cc(-c5cnn(C)c5)ncc34)nn2C2CN(CC3CCN(c4ccc(C(=O)N[C@H]5CC[C@H](Oc6ccc(C#N)c(Cl)c6)CC5)nn4)CC3)C2)C1", "note": "[Compound 4, 6-[4-[[3-[5-acetyl-3-[3-(1-methylpyrazol-4-yl)-8-isoquinolyl]-6,7-dihydro-4H-pyrazolo[4,3-c]pyridin-1-yl]azetidin-1-yl]methyl]-1-piperidyl]-N-[4-(3-chloro-4-cyano-phenoxy)cyclohexyl]pyridazine-3-carboxamide]", "values": [
      {"measurement": "EC50", "setting": "AR / CBP ternary complex", "result": "< 1", "unit": "nM"},
      {"measurement": "IC50", "setting": "VCaP cells; Homo sapiens, 216 h", "result": "≤ 0.1", "unit": "nM"}
    ]},
    {"smiles": "CC(=O)N1CCc2c(c(-c3cccc4cc(-c5cnn(C)c5)ncc34)nn2C2CCN(CCC3CCN(c4ccc(C(=O)N[C@H]5CC[C@H](Oc6ccc(C#N)c(Cl)c6)CC5)nn4)CC3)CC2)C1", "note": "[Compound 5, 6-[4-[2-[4-[5-acetyl-3-[3-(1-methylpyrazol-4-yl)-8-isoquinolyl]-6,7-dihydro-4H-pyrazolo[4,3-c]pyridin-1-yl]-1-piperidyl]ethyl]-1-piperidyl]-N-[4-(3-chloro-4-cyano-phenoxy)cyclohexyl]pyridazine-3-carboxamide]", "values": [
      {"measurement": "EC50", "setting": "AR / CBP ternary complex", "result": "< 1", "unit": "nM"},
      {"measurement": "IC50", "setting": "VCaP cells; Homo sapiens, 216 h", "result": "≤ 0.1", "unit": "nM"}
    ]},
    {"smiles": "CC(=O)N1CCc2c(c(-c3cccc4cc(-c5cnn(CCC6CCN(c7ccc(C(=O)N[C@H]8CC[C@H](Oc9ccc(C#N)c(Cl)c9)CC8)nn7)CC6)c5)ncc34)nn2C)C1", "note": "[Compound 8, 6-[4-[2-[4-[8-(5-acetyl-1-methyl-6,7-dihydro-4H-pyrazolo[4,3-c]pyridin-3-yl)-3-isoquinolyl]pyrazol-1-yl]ethyl]-1-piperidyl]-N-[4-(3-chloro-4-cyano-phenoxy)cyclohexyl]pyridazine-3-carboxamide]", "values": [
      {"measurement": "EC50", "setting": "AR / CBP ternary complex", "result": "< 1", "unit": "nM"},
      {"measurement": "IC50", "setting": "VCaP cells; Homo sapiens, 216 h", "result": "≤ 0.1", "unit": "nM"}
    ]},
    {"smiles": "CC(=O)N1CCc2c(c(N3CCCc4cc(-c5cnn(C)c5)c(C(F)F)cc43)nn2C2CCN(C3CCC4(CC3)CN(c3ccc(C(=O)N[C@H]5CC[C@H](Oc6ccc(C#N)c(Cl)c6)CC5)nn3)C4)CC2)C1", "note": "[Compound 185, 6-[7-[4-[5-acetyl-3-[7-(difluoromethyl)-6-(1-methylpyrazol-4-yl)-3,4-dihydro-2H-quinolin-1-yl]-6,7-dihydro-4H-pyrazolo[4,3-c]pyridin-1-yl]-1-piperidyl]-2-azaspiro[3.5]nonan-2-yl]-N-[4-(3-chloro-4-cyano-phenoxy)cyclohexyl]pyridazine-3-carboxamide]", "values": [
      {"measurement": "IC50", "setting": "VCaP cells; Homo sapiens, 216 h", "result": "≤ 0.1", "unit": "nM"}
    ]},
    {"smiles": "CC(=O)N1CCc2c(c(N3CCCc4cc(-c5cnn(C)c5)c(C(F)F)cc43)nn2[C@H]2CC[C@H](N(C)C3CCN(c4ccc(C(=O)N[C@H]5CC[C@H](Oc6ccc(C#N)c(Cl)c6)CC5)nn4)CC3)CC2)C1", "note": "[Compound 187, 6-[4-[[4-[5-acetyl-3-[7-(difluoromethyl)-6-(1-methylpyrazol-4-yl)-3,4-dihydro-2H-quinolin-1-yl]-6,7-dihydro-4H-pyrazolo[4,3-c]pyridin-1-yl]cyclohexyl]-methyl-amino]-1-piperidyl]-N-[4-(3-chloro-4-cyano-phenoxy)cyclohexyl]pyridazine-3-carboxamide]", "values": [
      {"measurement": "IC50", "setting": "VCaP cells; Homo sapiens, 216 h", "result": "≤ 0.1", "unit": "nM"}
    ]},
    {"smiles": "CC(=O)N1CCc2c(c(N3CCCc4cc(-c5cnn(C)c5)c(C(F)F)cc43)nn2[C@H]2CC[C@@H](N(C)C3CCN(c4ccc(C(=O)N[C@H]5CC[C@H](Oc6ccc(C#N)c(Cl)c6)CC5)nn4)CC3)CC2)C1", "note": "[Compound 189, 6-[4-[[4-[5-acetyl-3-[7-(difluoromethyl)-6-(1-methylpyrazol-4-yl)-3,4-dihydro-2H-quinolin-1-yl]-6,7-dihydro-4H-pyrazolo[4,3-c]pyridin-1-yl]cyclohexyl]-methyl-amino]-1-piperidyl]-N-[4-(3-chloro-4-cyano-phenoxy)cyclohexyl]pyridazine-3-carboxamide]", "values": [
      {"measurement": "IC50", "setting": "VCaP cells; Homo sapiens, 216 h", "result": "≤ 0.1", "unit": "nM"}
    ]},
    {"smiles": "CC(=O)N1CCc2c(c(N3CCCc4cc(-c5ccc(OC6CC7(CCN(c8ccc(C(=O)N[C@H]9CC[C@H](Oc%10ccc(C#N)c(Cl)c%10)CC9)nn8)CC7)C6)nc5)c(C(F)F)cc43)nn2C2CCOCC2)C1", "note": "[Compound 202, 6-[2-[[5-[1-(5-acetyl-1-tetrahydropyran-4-yl-6,7-dihydro-4H-pyrazolo[4,3-c]pyridin-3-yl)-7-(difluoromethyl)-3,4-dihydro-2H-quinolin-6-yl]-2-pyridyl]oxy]-7-azaspiro[3.5]nonan-7-yl]-N-[4-(3-chloro-4-cyano-phenoxy)cyclohexyl]pyridazine-3-carboxamide]", "values": [
      {"measurement": "IC50", "setting": "VCaP cells; Homo sapiens, 216 h", "result": "0.1 to 1", "unit": "nM"}
    ]}
  ]
}
